The values below come from patent publication US20220128564A1, “USE OF A STIMULATING AGENT TO ASSAY IMMUNE CELL POTENCY” (RESEARCH INSTITUTE AT NATIONWIDE CHILDREN'S HOSPITAL, priority 2019, published 2022).

The subject of experiment [1] is fresh peripheral blood NK cells. Description: PHA-induced cytokine assay, fresh peripheral blood NK cells. Type of experiment: cell-based. Particulars: fresh NK cells (N=10), 10^6 cells, 1 hour stimulation with PHA, supernatant. From the text: (§1) Use of tumor cells to test effector function of therapeutic immune cells has been a standard practice. These target cells add biological variabilities to the outcomes of assay. Also, this assay set up is more tedious and complicated adding up variabilities due to target condition, plate set up, person-to-person difference in techniques. The therapeutic response of NK cells via comparison of a PHA cytokine assay against a widely use tumor cell (K562) mediated cytokine assay. The levels of cytokine indicate potency of the response from the NK cells.
(§2) After establishing an optimal number of cells (10^6) for the assay, multiple donors of fresh peripheral blood NK cells (N=10) and expanded NK cells (N=18) were stimulated with PHA to produce cytokines, and after 1 hour cytokine in the supernatant was assessed. Expression of most cytokines are similar between the two types of NK cells, but several cytokines and chemokines related to NK cell function were highly differentially expressed in response to stimulation (FIG. 6). Next the expression of 6 cytokines in fresh and expanded NK cells was measured after 1 hour stimulation with PHA. Pentraxin-3 (mean 1,062 vs 7), IL-8 (mean 821 vs 11), and Chitinase 3-like 1 (mean 620 vs 7) were highly overexpressed in fresh NK cells compared to expanded NK cells, and IFN-γ (mean 15 vs 105), IL-2 (mean 3 vs 141), and CD30 (mean9 vs. 156) were highly overexpressed in expanded NK cells compared to fresh NK cells (FIG. 7). On the basis of overexpression alone, a cut-off of expressing 10 pg/mL of both IFN-γ and IL-2 has 94% specificity […] and 89% sensitivity (16 of 18) in differentiating expanded NK cells from fresh peripheral blood NK cells (FIG. 8).

The next experiment concerns expanded NK cells. Description: PHA-induced cytokine assay, expanded NK cells. Particulars: expanded NK cells (N=18), 10^6 cells, 1 hour stimulation with PHA, supernatant. Type of experiment: cell-based.
Source text: as §1, §2

In the case of phytohemagglutinin [PHA], in experiment [1], the “CD30 expression (mean)” value is reported as 9, the “Chitinase 3-like 1 expression (mean)” value came out at 620, the “IFN-γ expression (mean)” value was 15 and the “IL-2 expression (mean)” value stood at 3. In experiment [1], the “IL-8 expression (mean)” value was determined as 821 and the “Pentraxin-3 expression (mean)” value is given as 1,062. Further, in the experiment with expanded NK cells, the “CD30 expression (mean)” value was determined as 156, the “Chitinase 3-like 1 expression (mean)” value is recorded as 7, the “IFN-γ expression (mean)” value was determined as 105 and the “IL-2 expression (mean)” value was found to be 141. Further, in the experiment with expanded NK cells, the “IL-8 expression (mean)” value turned out to be 11 and the “Pentraxin-3 expression (mean)” value stood at 7.
